Patent US20220218852A1, “NOVEL RADIOLABELLED CXCR4-TARGETING COMPOUNDS FOR DIAGNOSIS AND THERAPY” (PROVINCIAL HEALTH SERVICES AUTHORITY, priority 2019, published 2022)
Like-named read-outs stand apart in the source and are kept apart here. Positions of bridges follow the written chain, without caps; N, C: chain ends. Non-standard residues stand in square brackets, D forms with d. Residues, ends and D or L forms follow the SMILES beside them. Groups on a side chain read outwards from the residue. *: point of attachment. DOTA = O=C(O)CN1CCN(CC(=O)O)CCN(CC(=O)*)CCN(CC(=O)O)CC1; 2Nal = N[C@@H](Cc1ccc2ccccc2c1)C(=O)O; Lys(iPr) = CC(C)NCCCC[C@H](N)C(=O)O

Experiments:
Format in all cases: in vivo
[1] = test system: Z138 mantle cell lymphoma xenografts; experiment: Biodistribution in Z138 tumor-bearing mice; conditions: 72 h
Protocol: (§1) For Daudi, Z138, GRANTA519 and Jeko1 xenografts, male NOD.Cg-Rag1^tm1MomII2rg^tm1Wjl/SzJ (NRG) mice were subcutaneously inoculated on the left flank with 5×10^6 cells (100 μL; 1:1 ratio of PBS/Matrigel) and tumors were grown to a size of 200-500 mm^3. For PC-3 xenografts, male NOD.Cg-Rag1^tm1MomII2rg^tm1Wjl/SzJ (NRG) mice were subcutaneously inoculated on the left flank with 5×10^6 PC-3 cells (100 μL; 1:1 ratio of PBS/Matrigel) and tumors were grown to a size of 200-400 mm^3.
(§2) The mice were euthanized via CO2 inhalation while anesthetized with isoflurane. Tissues were harvested, washed in PBS, blotted dry, weighed, and measured on a Hidex AMG Automatic Gamma Counter.

[2] = Biodistribution in GRANTA519 tumor-bearing mice; conditions: male, NOD.Cg-Rag1^tm1MomII2rg^tm1Wjl/SzJ (NRG), mouse, iv, total radioactivity
Protocol: as §1, §2

[3] = test system: GRANTA519 mantle cell lymphoma xenografts; experiment: Biodistribution in GRANTA519 tumor-bearing mice
Protocol: as §1, §2

[4] = GRANTA519 tumour, read-out: Biodistribution GRANTA519 (tumour)
[5] = adrenals, read-out: Biodistribution Adrenals
[6] = bone, read-out: Biodistribution Bone
[7] = fat, read-out: Biodistribution Fat
[8] = intestine, read-out: Biodistribution Intestine
[9] = kidney, read-out: Biodistribution Kidney
[10] = liver, read-out: Biodistribution Liver
[11] = lung, read-out: Biodistribution Lung
[12] = muscle, read-out: Biodistribution Muscle
[13] = pancreas, read-out: Biodistribution Pancreas
[14] = spleen, read-out: Biodistribution Spleen
[15] = stomach, read-out: Biodistribution Stomach
[16] = testes, read-out: Biodistribution Testes
[17] = whole blood, read-out: Biodistribution Blood

CC(C)NCCCC[C@@H]1NC(=O)[C@H](Cc2ccc(O)cc2)NC(=O)[C@H](Cc2ccccc2)NC(=O)CC[C@H](C(=O)N[C@@H](CCCCNC(C)C)C(=O)N[C@@H](CCCCNC(=O)[C@H](CCC(=O)O)NC(=O)[C@H](CCC(=O)O)NC(=O)[C@H](CCC(=O)O)NC(=O)CN2CCN(CC(=O)O)CCN(CC(=O)O)CCN(CC(=O)O)CC2)C(N)=O)NC(=O)CNC(=O)[C@H](Cc2ccc3ccccc3c2)NC(=O)[C@@H](CCCNC(=N)N)NC1=O [[^177Lu]Lu-BL02, metal not drawn] (FY[Lys(iPr)][dR][2Nal]G[dE][Lys(iPr)]K([Glu-Glu-Glu-DOTA])-NH2; lactam N-7)
Ratio Tumour:Bone [1]: 68.39 | Ratio Tumour:Liver [1]: 8.32 | Ratio Tumour:Lung [1]: 21.59 | Ratio Tumour:Muscle [1]: 358.55 | Ratio Tumour:Spleen [1]: 13.86 | tissue uptake at 1 h ([2]; GRANTA519 tumour, 1 h, read-out: Biodistribution GRANTA519 (tumour)): 6.83 %ID/g | tissue uptake at 1 h ([2]; GRANTA519 tumour, 1 h blocked, read-out: Biodistribution GRANTA519 (tumour)): 0.84 %ID/g | tissue uptake at 4 h [2, 4]: 3.22 %ID/g | tissue uptake at 24 h [2, 4]: 1.09 %ID/g | tissue uptake at 72 h [2, 4]: 0.353 %ID/g | tissue uptake at 1 h ([2]; adrenals, 1 h, read-out: Biodistribution Adrenals): 0.39 %ID/g | tissue uptake at 1 h ([2]; adrenals, 1 h blocked, read-out: Biodistribution Adrenals): 0.48 %ID/g | tissue uptake at 4 h [2, 5]: 0.1 %ID/g | tissue uptake at 24 h [2, 5]: 0.094 %ID/g | tissue uptake at 72 h [2, 5]: 0.346 %ID/g | tissue uptake at 1 h ([2]; bone, 1 h, read-out: Biodistribution Bone): 0.24 %ID/g | tissue uptake at 4 h [2, 6]: 0.09 %ID/g | tissue uptake at 24 h [2, 6]: 0.09 %ID/g | tissue uptake at 72 h [2, 6]: 0.061 %ID/g | tissue uptake at 1 h ([2]; bone, 1 h blocked, read-out: Biodistribution Bone): 0.41 %ID/g | tissue uptake at 1 h ([2]; fat, 1 h, read-out: Biodistribution Fat): 0.08 %ID/g | tissue uptake at 4 h [2, 7]: 0.01 %ID/g | tissue uptake at 24 h [2, 7]: 0.008 %ID/g | tissue uptake at 72 h [2, 7]: 0.006 %ID/g | tissue uptake at 1 h ([2]; fat, with LY2510924 7.5 μg i.p. 15 min before radiotracer, 1 h blocked, read-out: Biodistribution Fat): 0.16 %ID/g | tissue uptake at 1 h ([2]; heart, 1 h, read-out: Biodistribution Heart): 0.19 %ID/g | tissue uptake at 1 h ([2]; heart, 1 h blocked, read-out: Biodistribution Heart): 0.4 %ID/g | tissue uptake at 24 h ([2]; heart, read-out: Biodistribution Heart): 0.034 %ID/g | tissue uptake at 1 h ([2]; intestine, 1 h, read-out: Biodistribution Intestine): 0.28 %ID/g | tissue uptake at 1 h ([2]; intestine, 1 h blocked, read-out: Biodistribution Intestine): 0.58 %ID/g | tissue uptake at 24 h [2, 8]: 0.046 %ID/g | tissue uptake at 72 h [2, 8]: 0.017 %ID/g | tissue uptake at 1 h ([2]; kidney, 1 h, read-out: Biodistribution Kidney): 3.91 %ID/g | tissue uptake at 1 h ([2]; kidney, 1 h blocked, read-out: Biodistribution Kidney): 8.63 %ID/g | tissue uptake at 4 h [2, 9]: 2.98 %ID/g | tissue uptake at 24 h [2, 9]: 1.33 %ID/g | tissue uptake at 72 h [2, 9]: 0.573 %ID/g | tissue uptake at 1 h ([2]; liver, 1 h, read-out: Biodistribution Liver): 0.96 %ID/g | tissue uptake at 4 h [2, 10]: 0.87 %ID/g | tissue uptake at 24 h [2, 10]: 0.635 %ID/g | tissue uptake at 72 h [2, 10]: 0.413 %ID/g | tissue uptake at 1 h ([2]; liver, with LY2510924 7.5 μg i.p. 15 min before radiotracer, 1 h blocked, read-out: Biodistribution Liver): 1.07 %ID/g | tissue uptake at 1 h ([2]; lung, 1 h, read-out: Biodistribution Lung): 0.77 %ID/g | tissue uptake at 1 h ([2]; lung, 1 h blocked, read-out: Biodistribution Lung): 1.16 %ID/g | tissue uptake at 4 h [2, 11]: 0.27 %ID/g | tissue uptake at 24 h [2, 11]: 0.117 %ID/g | tissue uptake at 72 h [2, 11]: 0.06 %ID/g | tissue uptake at 1 h ([2]; muscle, 1 h, read-out: Biodistribution Muscle): 0.13 %ID/g | tissue uptake at 1 h ([2]; muscle, 1 h blocked, read-out: Biodistribution Muscle): 0.34 %ID/g | tissue uptake at 4 h [2, 12]: 0.04 %ID/g | tissue uptake at 24 h [2, 12]: 0.015 %ID/g | tissue uptake at 72 h [2, 12]: 0.007 %ID/g | tissue uptake at 1 h ([2]; pancreas, 1 h, read-out: Biodistribution Pancreas): 0.17 %ID/g | tissue uptake at 24 h [2, 13]: 0.028 %ID/g | tissue uptake at 72 h [2, 13]: 0.015 %ID/g | tissue uptake at 1 h ([2]; pancreas, with LY2510924 7.5 μg i.p. 15 min before radiotracer, 1 h blocked, read-out: Biodistribution Pancreas): 0.3 %ID/g | tissue uptake at 1 h ([2]; spleen, 1 h, read-out: Biodistribution Spleen): 0.49 %ID/g | tissue uptake at 4 h [2, 14]: 0.28 %ID/g | tissue uptake at 24 h [2, 14]: 0.321 %ID/g | tissue uptake at 72 h [2, 14]: 0.198 %ID/g | tissue uptake at 1 h ([2]; spleen, with LY2510924 7.5 μg i.p. 15 min before radiotracer, 1 h blocked, read-out: Biodistribution Spleen): 0.48 %ID/g | tissue uptake at 1 h ([2]; stomach, 1 h, read-out: Biodistribution Stomach): 0.1 %ID/g | tissue uptake at 4 h [2, 15]: 0.05 %ID/g | tissue uptake at 24 h [2, 15]: 0.206 %ID/g | tissue uptake at 72 h [2, 15]: 0.021 %ID/g | tissue uptake at 1 h ([2]; stomach, with LY2510924 7.5 μg i.p. 15 min before radiotracer, 1 h blocked, read-out: Biodistribution Stomach): 0.19 %ID/g | tissue uptake at 1 h ([2]; testes, 1 h, read-out: Biodistribution Testes): 0.21 %ID/g | tissue uptake at 1 h ([2]; testes, 1 h blocked, read-out: Biodistribution Testes): 0.32 %ID/g | tissue uptake at 24 h [2, 16]: 0.034 %ID/g | tissue uptake at 72 h [2, 16]: 0.034 %ID/g | tissue uptake at 1 h ([2]; whole blood, 1 h, read-out: Biodistribution Blood): 0.5 %ID/g | tissue uptake at 4 h [2, 17]: 0.02 %ID/g | tissue uptake at 24 h [2, 17]: 0.006 %ID/g | tissue uptake at 72 h [2, 17]: 0.002 %ID/g | tissue uptake at 1 h ([2]; whole blood, with LY2510924 7.5 μg i.p. 15 min before radiotracer, 1 h blocked, read-out: Biodistribution Blood): 1.14 %ID/g | Ratio Tumour:Blood ([3]; 1 h): 14.18 | Ratio Tumour:Bone ([3]; 1 h): 28.95 | Ratio Tumour:Liver ([3]; 1 h): 7.10 | Ratio Tumour:Lung ([3]; 1 h): 9.08 | Ratio Tumour:Muscle ([3]; 1 h): 56.86 | Ratio Tumour:Spleen ([3]; 1 h): 14.20 | Ratio Tumour:Blood ([3]; 1 h blocked): 0.77 | Ratio Tumour:Bone ([3]; 1 h blocked): 2.16 | Ratio Tumour:Liver ([3]; 1 h blocked): 0.78 | Ratio Tumour:Lung ([3]; 1 h blocked): 0.74 | Ratio Tumour:Muscle ([3]; 1 h blocked): 3.18 | Ratio Tumour:Spleen ([3]; 1 h blocked): 1.77 | Ratio Tumour:Blood ([3]; 4 h): 119.44 | Ratio Tumour:Bone ([3]; 4 h): 34.26 | Ratio Tumour:Liver ([3]; 4 h): 3.75 | Ratio Tumour:Lung ([3]; 4 h): 12.56 | Ratio Tumour:Muscle ([3]; 4 h): 90.57 | Ratio Tumour:Spleen ([3]; 4 h): 11.98 | Ratio Tumour:Blood ([3]; 24 h): 206.07 | Ratio Tumour:Bone ([3]; 24 h): 12.33 | Ratio Tumour:Liver ([3]; 24 h): 1.72 | Ratio Tumour:Lung ([3]; 24 h): 9.91 | Ratio Tumour:Muscle ([3]; 24 h): 76.90 | Ratio Tumour:Spleen ([3]; 24 h): 3.78 | Ratio Tumour:Blood ([3]; 72 h): 126.69 | Ratio Tumour:Bone ([3]; 72 h): 5.88 | Ratio Tumour:Liver ([3]; 72 h): 0.86 | Ratio Tumour:Lung ([3]; 72 h): 6.60 | Ratio Tumour:Muscle ([3]; 72 h): 50.64 | Ratio Tumour:Spleen ([3]; 72 h): 1.53
